From US20220288114A1, “MULTI-AGENT OCULAR FORMULATIONS AND TREATMENT METHODS” (University of Utah Research Foundation, priority 2019, published 2022)

Experiments:
guinea pigs = experiment: Refractive error by streak retinoscopy in guinea pigs, 60-day atropine eye drop treatment; type: in vivo; conditions: .001% eye drops 2 times per day for approximately 60 days
Method: Treatment using .001% atropine sulfate monohydrate eye drops is administered at approximately 1 week of age to guinea pigs. The eye drops are administered 2 times per day for approximately 60 days. Refractive error is measured by an ophthalmologist prior to treatment on day 1 and at subsequent time-points (e.g., 14 days, 27 days, 44 days, and 62 days after the beginning of treatment) depicted in FIGS. 1A-1C. […] Stable refractive errors are typically obtained after 15 minutes when there is no pupil response.

[1] = test system: LNL crosslinks in rabbit cornea; conditions: rabbits; 0.15 mg/ml eye drops twice a day for 6 weeks; LC-MS
Method: After six weeks each group of corneas is dissected, weighed and used for LNL analysis. Samples are reduced with NaBH4 at room temperature then washed twice with water, dried, and hydrolyzed with 6N
HCl in vacuo for 18 hours at 110° C. […] The hydrolysates are dried to evaporate HCL, reconstituted with H2O, and re-dried to remove residual HCl. Post hydrolysis, cross-link enrichment is carried out using a cellulose mini-column method. Samples are then provided for LNL analysis by mass spectroscopy (LC/MS).
To perform liquid chromatography/mass spectroscopy (LC/MS), 1 μL of 100 μg/mL d9-Lysine is added to all samples as an internal standard. A calibration curve is created using serial dilution. Semi-quantitative mass spectral analysis is performed using a Sciex 6500 Q-Trap (Sciex, Farmington, MA). A helicon iHILIC-Fusion 2.1×100 mm column (Umeå, Sweden) is used for chromatography using 10 mM NH4OAc (Buffer A) and ACN (Buffer B). LC/MS is performed in the positive mode with a TurboIon source using optimized source conditions. Quantitative data analysis is conducted using Sciex MultiQuant software.

rabbits = conditions: 0.15 mg/ml eye drops 2 times per day for approximately 60 days
Method: Treatment using 0.15 mg/ml copper sulfate pentahydrate in an ophthalmic vehicle is administered at approximately 6 weeks of age to rabbits. Eyedrops are administered 2 times per day for approximately 60 days. Refractive error is measured by an ophthalmologist prior to treatment on day 1 and at subsequent time-points (e.g., 14 days, 27 days, 44 days, and 62 days after the beginning of treatment) depicted in FIG. 3. […] Stable refractive errors are typically obtained after 15 minutes when there is no pupil response. FIG. 3 presents refractive error measurements for the test subjects in each eye.

cornea = conditions: rabbits
From the text: The Ocular Response Analyzer (ORA; Reichert, Inc, Buffalo, N.Y.) is a commercially available noncontact tonometer that also assesses the viscoelastic nature of the cornea with bidirectional detection of applanation events to allow in vivo measurements of corneal biomechanical response parameters under air puff loading 42. The system includes an infrared emitter and detector aligned such that applanation produces a spike on the detector with a mirror like reflection from the flattened corneal surface.
Two applanation pressure measurements are reported by the ORA: one while the cornea moves inward, reaching first applanation, at pressure P1, and the other after the cornea recovers from a slight concavity as it moves outward passing through a second applanation at pressure P2. Therefore, these two values, P1 and P2, indicate the pressures associated with a flattened cornea during the loading and unloading cycle, with P2<P1 for a valid measurement. The difference between P1 and P2 is termed corneal hysteresis (CH).
A greater value for Peak 1 or Peak 2 indicates a larger area of applanation which is associated with a stiffer response. Thus, for the current study the
ORA pressure and applanation signals were analyzed using custom software to determine the magnitudes of Peak 1 and Peak 2. ORA measurements were assessed at baseline and every week for 6-8 weeks on the same set of rabbits described in 2.4.b which included 4 groups Sol A, Sol B, and vehicle and no drops. An increase in Peak 1 and Peak 2 can be present after stiffening; therefore, one-tailed t-tests were used for statistical analysis to compare groups.
The times at 3, 4, 5, and 6 weeks for the combined AB (treatment Sol A and treatment Sol B) treatment group were averaged for comparison against no therapy and vehicle. Peak 1 and Peak 2 were compared to both controls.

CN1[C@@H]2CC[C@H]1CC(OC(=O)C(CO)c1ccccc1)C2.CN1[C@@H]2CC[C@H]1CC(OC(=O)C(CO)c1ccccc1)C2.O.O=S(=O)(O)O (some centres unmarked) [Atropine, atropine sulfate monohydrate]
Progression of myopia (refractive error) (guinea pigs): Slows Progression of Myopia

O.O.O.O.O.O=S(=O)([O-])[O-].[Cu+2] [copper sulfate pentahydrate]
LNL crosslinks in treated rabbit cornea compared to control (no treatment) and vehicle group [1]: significant increases
Reduction of myopic progression in the treatment eye compared to control (rabbits): approximately 63%

O=S(=O)([O-])[O-].[Cu+2] [Copper sulfate]
Corneal stiffening in vivo as measured by waveform response to air puff deformation (cornea; ORA): generates stiffening in vivo
Peak 1, treated group AB versus no therapy (cornea; weeks 3, 4, 5 and 6 averaged, combined Sol A and Sol B, one-tailed t-test p=0.0244): significantly greater than no therapy
Peak 2, treated group AB versus vehicle (cornea; weeks 3, 4, 5 and 6 averaged, combined Sol A and Sol B, p<0.0001): significantly greater
Peak 2, treated group AB versus no therapy (cornea; weeks 3, 4, 5 and 6 averaged, combined Sol A and Sol B, p=0.0098): significantly greater than no therapy
Peak 1, treated group AB versus vehicle (cornea; weeks 3, 4, 5 and 6 averaged, combined Sol A and Sol B, p=0.0763): no substantial difference
